{
  "source": "ChEMBL document CHEMBL3271950",
  "about": "“2,3-Dihydroxyphenethanolamine as an adrenergic agent” (J Med Chem, 1976)",
  "key": {"Rattus norvegicus [1]": {"tested_on": "Rattus norvegicus", "assay": "Increase blood pressure in rat at 1 mg/kg", "format": "functional, organism-based", "design": "dose 1 mg/kg"}, "Rattus norvegicus [2]": {"organism": "Rattus norvegicus", "assay": "Agonist activity at adrenergic receptor in rat vas deferens at 0.165 ug/ml", "format": "tissue-based"}, "[3]": {"assay": "Metal chelating activity of the compound assessed as Cu2+ complex formation at 1 x 10' -3 M by spectrometry", "format": "physicochemical", "conditions": "1000 µM"}, "Rattus norvegicus [4]": {"tested_on": "Rattus norvegicus", "assay": "Increase blood pressure in rat at 100 mg/kg", "format": "functional, organism-based", "design": "dose 100 mg/kg"}, "[5]": {"molecular_target": "T1, Catechol O-methyltransferase (Homo sapiens) (UniProt P21964)", "T1 sequence (whole entry)": "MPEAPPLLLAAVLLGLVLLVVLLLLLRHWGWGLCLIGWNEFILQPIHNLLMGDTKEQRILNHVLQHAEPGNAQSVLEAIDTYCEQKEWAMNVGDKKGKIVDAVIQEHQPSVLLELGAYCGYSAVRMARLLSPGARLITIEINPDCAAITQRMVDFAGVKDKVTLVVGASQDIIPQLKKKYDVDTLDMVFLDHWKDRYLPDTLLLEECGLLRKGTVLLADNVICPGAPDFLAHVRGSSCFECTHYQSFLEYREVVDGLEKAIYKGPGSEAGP", "assay": "Activity of catechol-O-methyltransferase (unknown origin)"}, "Rattus norvegicus [6]": {"organism": "Rattus norvegicus", "assay": "Agonist activity at adrenergic receptor in rat vas deferens at 13 ug/ml", "format": "tissue-based"}, "[7]": {"molecular_target": "T1, Catechol O-methyltransferase (Homo sapiens)", "assay": "Inhibition of catechol-O-methyltransferase (unknown origin)-mediated l-norepinephrine methylation", "conditions": "concentration not given here"}, "Rattus norvegicus [8]": {"organism": "Rattus norvegicus", "assay": "Potentiation of l-norepinephrine-induced adrenergic receptor activity in rat vas deferens assessed as contraction", "format": "tissue-based"}, "Rattus norvegicus [9]": {"tested_on": "Rattus norvegicus", "assay": "Decrease in blood pressure in rat at 120 mg/kg", "format": "functional, organism-based", "design": "dose 120 mg/kg"}, "Rattus norvegicus [10]": {"tested_on": "Rattus norvegicus", "assay": "Decrease in blood pressure in rat at 0.150 mg/kg", "format": "functional, organism-based", "design": "dose 0.15 mg/kg"}},
  "note": "Activity calls are given as the source filed them. No cut-off for these calls is given here.",
  "data": [
    {"smiles": "NC[C@@H](O)c1ccc(O)c(O)c1", "values": [
      {"measurement": "Activity", "setting": "Rattus norvegicus [1]", "result": "Active"},
      {"measurement": "Activity", "setting": "Rattus norvegicus [2]", "result": "Active"}
    ]},
    {"smiles": "Oc1ccccc1O", "note": "[CATECHOL]", "values": [
      {"measurement": "Activity", "setting": "[3]", "result": "Active"}
    ]},
    {"smiles": "Br.NCC(O)c1cccc(O)c1O", "note": "(configuration not stated)", "values": [
      {"measurement": "Activity", "setting": "[3]", "result": "Active"},
      {"measurement": "Activity", "setting": "Rattus norvegicus [4]", "result": "Active"},
      {"measurement": "Activity", "setting": "[5]", "result": "< 5", "unit": "%"},
      {"measurement": "Activity", "setting": "Rattus norvegicus [6]", "result": "Active"},
      {"measurement": "inhibition", "setting": "[7]", "result": 25, "unit": "%"},
      {"measurement": "Activity", "setting": "Rattus norvegicus [8]", "result": "Active"}
    ]},
    {"smiles": "CC(C)NCC(O)c1cccc(O)c1O", "note": "(configuration not stated)", "values": [
      {"measurement": "Activity", "setting": "Rattus norvegicus [9]", "result": "Active"}
    ]},
    {"smiles": "CC(C)NCC(O)c1ccc(O)c(O)c1", "note": "(racemic)", "values": [
      {"measurement": "Activity", "setting": "Rattus norvegicus [10]", "result": "Active"}
    ]},
    {"smiles": "Br.NC[C@H](O)c1ccc(O)c(O)c1", "values": [
      {"measurement": "Activity", "setting": "[3]", "result": "Active"}
    ]}
  ]
}
